How the values were obtained:
BTK = BTK (Homo sapiens (Human), UniProt Q06187); assay: Detection of BTK degradation in Mino cells; assay type: cell-based
Procedure: The Mino human mantle cell lymphoma cell line was purchased from ATCC and cultured under conditions of RPMI-1640+15% FBS+1% double antibody in a 37° C., 5% CO2 incubator. Cells were plated in a 6-well plate, with 5×10^5 cells/well. After plating, compounds at different concentrations were added and cultured in a 37° C., 5% CO2 incubator for 48 h. After culturing, the cells were collected. The cells were lysed on ice for 15 minutes by adding RIPA lysis buffer (Beyotime, Cat. P0013B) and centrifuged at 12000 rpm at 4° C. for 10 minutes. The protein sample of the supernatant was collected, subjected to protein quantification by using a BCA kit (Beyotime, Cat. P0009) and then diluted to 0.25 mg/mL. The expressions of BTK (CST, Cat. 85475) and the internal reference β-actin (CST, Cat. 37005) were detected using a fully automated western blot quantitative analyzer (Proteinsimple) with a kit (Protein simple, Cat. SM-W004). The expression level of BTK relative to the internal reference was calculated by using Compass software, and the DC50 value was calculated by using Origen9.2 software according to formula (1). Specifically, the BTKadministration denoted the expression level of BTK in administration groups at different doses, and the BTKvehicle denoted the expression level of BTK in the vehicle control group.
BTK %=BTKadministration/BTKvehicle×100 formula (1)

BTK protein = BTK protein (Mus musculus (Mouse), UniProt P35991); assay: Detection of BTK protein degradation in spleen of mice; assay type: in vivo; conditions: female ICR mice, intragastric, 3 consecutive days; conclusion in words
Procedure: Female ICR mice, 6-8 weeks old, were purchased from Beijing Vital River Laboratory Animal Technology Co., Ltd., and the experiment was started after 3 days of adaptation. After 3 consecutive days of intragastric administration of compounds at different doses, the spleens of mice were taken. The spleen cells were collected, lysed on ice for 15 min by adding RIPA lysis buffer (Beyotime, Cat. P0013B), and then centrifuged at 12000 rpm at 4° C. for 10 min. The protein sample of the supernatant was collected, subjected to protein quantification by using a BCA kit (Beyotime, Cat. P0009) and then diluted to 0.25 mg/mL. The expressions of BTK (CST, Cat. 8547S) and the internal reference R-actin (CST, Cat. 3700S) were detected by using a fully automated western blot quantitative analyzer (Proteinsimple). The expression level of BTK relative to the internal reference was calculated by using Compass software, and the DD50 value was calculated by using Origen9.2 software according to formula (2). Specifically, the BTKadministration denoted the expression level of BTK in administration groups at different doses, and the BTKvehicle denoted the expression level of BTK in the vehicle control group.
BTK %=BTKadministration/BTKvehicle×100% formula (2)

Chain of BTK (Q06187 whole entry): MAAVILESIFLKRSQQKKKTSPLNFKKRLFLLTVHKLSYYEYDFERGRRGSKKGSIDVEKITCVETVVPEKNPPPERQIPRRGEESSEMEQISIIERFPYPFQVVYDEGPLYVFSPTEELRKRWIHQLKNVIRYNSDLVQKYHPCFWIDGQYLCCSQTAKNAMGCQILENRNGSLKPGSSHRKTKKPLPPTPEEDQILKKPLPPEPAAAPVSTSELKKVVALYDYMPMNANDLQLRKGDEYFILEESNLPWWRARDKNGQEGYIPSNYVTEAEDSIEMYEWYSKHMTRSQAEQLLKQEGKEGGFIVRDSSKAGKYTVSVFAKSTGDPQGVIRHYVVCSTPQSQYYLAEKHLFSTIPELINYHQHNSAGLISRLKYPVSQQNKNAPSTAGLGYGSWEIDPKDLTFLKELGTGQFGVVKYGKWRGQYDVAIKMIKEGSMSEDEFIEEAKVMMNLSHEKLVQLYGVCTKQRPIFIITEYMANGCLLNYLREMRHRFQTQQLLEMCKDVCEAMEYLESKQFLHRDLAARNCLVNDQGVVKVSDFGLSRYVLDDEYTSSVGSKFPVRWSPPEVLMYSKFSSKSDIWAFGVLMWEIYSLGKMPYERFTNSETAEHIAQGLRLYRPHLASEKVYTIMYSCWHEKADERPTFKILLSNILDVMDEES
Chain of BTK protein (P35991 whole entry): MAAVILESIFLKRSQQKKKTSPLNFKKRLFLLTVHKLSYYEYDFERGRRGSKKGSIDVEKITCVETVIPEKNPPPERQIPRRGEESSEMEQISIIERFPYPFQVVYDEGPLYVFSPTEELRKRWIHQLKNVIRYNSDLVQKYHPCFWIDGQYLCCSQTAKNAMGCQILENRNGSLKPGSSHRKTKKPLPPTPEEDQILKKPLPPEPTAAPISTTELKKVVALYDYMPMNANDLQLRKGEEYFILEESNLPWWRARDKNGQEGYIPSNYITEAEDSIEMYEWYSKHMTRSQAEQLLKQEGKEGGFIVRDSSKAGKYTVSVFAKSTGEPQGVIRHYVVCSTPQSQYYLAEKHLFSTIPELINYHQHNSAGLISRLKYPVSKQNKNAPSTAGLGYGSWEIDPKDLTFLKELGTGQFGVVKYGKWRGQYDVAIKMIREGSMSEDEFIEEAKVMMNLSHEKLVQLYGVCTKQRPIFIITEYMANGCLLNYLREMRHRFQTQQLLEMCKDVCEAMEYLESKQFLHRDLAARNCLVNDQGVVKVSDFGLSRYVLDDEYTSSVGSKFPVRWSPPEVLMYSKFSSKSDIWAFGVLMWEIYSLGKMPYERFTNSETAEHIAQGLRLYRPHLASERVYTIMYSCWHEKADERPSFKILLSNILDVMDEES

Nc1ncnc2c1c(-c1ccc(Oc3ccccc3)cc1)nn2C1CCN(C2CCN(C3CN(c4ccc5c(c4)C(=O)N(C4CCC(=O)NC4=O)C5=O)C3)CC2)CC1 (stereo not drawn) [Compound 2, 5-(3-(4-(4-amino-3-(4-phenoxyphenyl)-1H-pyrazolo[3,4-d]pyrimidin-1-yl)-[1,4′-bipiperidin]-1′-yl)azetidin-1-yl)-2-(2,6-dioxopiperidin-3-yl)isoindoline-1,3-dione]
DC50 (BTK; Mino cells, 48 h, western blot, BTK relative to β-actin): 22.9 nM
degradation effect on BTK in Mino cells (BTK; conclusion in words): significant degradation effect
degradation effect on BTK proteins in spleens of mice (BTK protein): significant degradation effect
